Calls of active or inactive are those of the source.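 How the source made its calls: active means EC50 under a set limit in control cells lacking the mosquito receptor, marking a fluorescence artifact; inactive means the rest.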

This experiment deals with HEK293 Galpha15/GCaMP6s without NPYLR7, calcium fluorescence. In words: calcium response in NPYLR7-null HEK293 cells, dose response, counter-screen for mosquito NPYLR7 agonist project, cell-based, HEK293 lacking NPYLR7 (AID 1259426).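 Further: potency for a rise in fluorescence over baseline.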 For orientation: Counterscreens check selectivity or assay interference.
As for `CCC(CO)[n+]1c(C)cc(C=C2Sc3ccccc3N2Cc2ccccc2)cc1C` (centres undefined), the EC50 (in general, the concentration that produces a half-maximal response) was > 20 µM (inactive).

On to `COc1cc(C=C(C#N)S(=O)(=O)c2cc(Br)ccc2Br)ccc1O`, for which the half-maximal effective concentration (EC50) was 19.5 µM.

Consider `COc1cc(C=C(C#N)C(=O)OC(C)C)cc(Cl)c1O`, for which the EC50 is > 20 µM (inactive). Regarding `O=C(O)CCN1C(=O)/C(=C/c2ccc(O)cc2)SC1=S`, the concentration for a half-maximal effect (EC50) was 2.69 µM. On to `CCN1CCc2c(sc(NC(=O)C3=COCCO3)c2-c2nc3ccccc3s2)C1`, for which the EC50 is 0.945 µM. Take `O=C(O)c1csc(CSc2nnc(Cc3ccccc3)n2-c2cccc(C(F)(F)F)c2)n1`: the EC50 was > 20 µM (inactive). With `CCOc1cc(C=O)c(O)c(C=O)c1`, the 50% effective concentration (EC50) was 0.893 µM. As for `N#CC(C#N)=C1C=C2C=C(N3CCCC3)CCC2CC1` (centres undefined), the concentration giving a half-maximal response (EC50) is under 17.7 µM. With `CCCCNC(=O)CCCCCNC(N)=O`, the EC50 is > 20 µM (inactive). Consider `COc1cc(C(=O)N2CCOC(c3ccccc3)C2)cc(OC)c1C` (centres undefined), for which the EC50 was > 20 µM (inactive).

Take `Cc1nc(Sc2nnc3ccccn23)c2c3c(sc2n1)CCCC3`: the EC50 was > 20 µM (inactive). As to `Cc1cc(C=C2Sc3ccccc3N2C)cc(C)[n+]1-c1ccccc1`, the EC50 is 1.51 µM. For the compound `COc1ccccc1N=c1oc2cc(O)ccc2cc1-c1nc2ccccc2[nH]1`, the EC50 is 0.805 µM.

On to `COc1ccccc1OCCCOc1ccc(Br)cc1Cl`, for which the EC50 is > 20 µM (inactive). As for `CCOc1cc(/C=C2\SC(=S)N(NC(=O)c3ccccc3O)C2=O)ccc1O`, the EC50 is > 20 µM (inactive). Consider `CC(=O)NN1C(=O)/C(=C\c2ccc(O)cc2)SC1=S`, for which the EC50 was 3.61 µM. The figure for `N#Cc1cc2cc(Cl)cc(Cl)c2oc1=O` is 1.94 µM; for `COc1cc(Br)c(O)c(/C=N\n2c(C)n[nH]c2=S)c1` it is > 20 µM (inactive); for `COc1ccc(/C=C2\Oc3c(ccc4c3CN(Cc3ccncc3)CO4)C2=O)cc1` it is 8.8 µM. `CCN1CCN(C2=CC3=CC(=C(C#N)C#N)CCC3CC2)CC1` (centres undefined): the concentration for a half-maximal effect (EC50) was under 0.039 µM. For the compound `COc1cc(C=C2N=C(c3ccc4c(c3)OCO4)OC2=O)cc2c1OCCO2`, the EC50 was > 20 µM (inactive). The figure for `CCC(C)[n+]1c(C)cc(C=C2Sc3ccccc3N2C)cc1C` (centres undefined) is 7.94 µM; for `O=C1/C(=C/c2cc3ccccc3o2)Oc2cc(O)ccc21` it is > 20 µM (inactive). In the case of `O=C1CCCC2Nc3ncnc(Cl)c3OC12` (centres undefined), the concentration giving a half-maximal response (EC50) was 6.38 µM. With `COc1ccc(C2=NN(C(=O)CN3CCOCC3)C(c3nc4ccccc4[nH]3)C2)cc1` (centres undefined), the EC50 was > 20 µM (inactive). Take `CCN1CCN(C(=O)c2ccc(Cn3ccsc3=NC(=O)c3ccc(OC)c(OC)c3)o2)CC1`: the EC50 is > 20 µM (inactive). With `COc1ccc(Cl)cc1Nc1nnc(-c2cc3c(ccc4ccccc43)oc2=O)s1`, the EC50 was > 20 µM (inactive). As to `CSCCC(C(=O)O)N1C(=O)/C(=C/c2ccc(O)cc2)SC1=S` (centres undefined), the EC50 is 6.49 µM. For `Clc1cccc2ccc(CN3CCn4cncc4C3)nc12`, the EC50 was 19.2 µM. As for `COc1cccc(CN2COc3ccc4c(c3C2)O/C(=C\c2ccncc2)C4=O)c1`, the EC50 is 11.1 µM. On to `O=C1/C(=C/c2cccc(Br)c2)Oc2c1ccc(O)c2CN1CCN(CCO)CC1`, for which the concentration for a half-maximal effect (EC50) is 12.7 µM.

Take `Cc1nn(C)c(Cl)c1/C=C1/CCCc2c1nc1ccccc1c2C(=O)O`: the EC50 was > 20 µM (inactive).

Take `Nc1nc(Cl)nc2c1ncn2[C@@H]1O[C@H](COP(=O)(O)OP(=O)(O)OP(=O)(O)O)[C@H](O)C1O` (some centres undefined): the EC50 was > 20 µM (inactive). For `CN(C)c1ccc(/C=C2/SC(=S)N(CC(=O)O)C2=O)cc1`, the half-maximal effective concentration (EC50) is 6.89 µM. As for `Cc1ccc(C)c(C2C(C#N)C(=N)SC(=N)C2C#N)c1` (centres undefined), the concentration giving a half-maximal response (EC50) was 11.9 µM. For `CC1(C)CC(c2[nH]cnc2-c2ccccc2)CCO1` (centres undefined), the EC50 was > 20 µM (inactive). The same measure for `COc1ccc(C(=O)C=Cc2cc(OC)c(O)c(OC)c2)cc1F`: 5.86 µM; for `CC(C(=O)O)N1C(=O)/C(=C\c2ccc(O)cc2)SC1=S` (centres undefined): 12.1 µM. `O=[N+]([O-])c1cc(S(=O)(=O)Nc2cc(Cl)ccc2F)ccc1F`: the EC50 was > 20 µM (inactive). Take `CCCc1[nH]n(-c2ccc(Cl)c(Cl)c2)c(=O)c1/C=C1\NC(=O)N(Cc2ccc(C)cc2)C1=O`: the concentration giving a half-maximal response (EC50) is 18.9 µM. For the compound `CC(C)c1nc(NC(=O)c2[nH]ncc2Br)n(C)n1`, the concentration for a half-maximal effect (EC50) is 1.5 µM. Turning to `Nc1ccc(-c2nc3cc(N)cc(Cl)c3o2)cc1`, the EC50 was 17 µM. The figure for `CCCC1CCC(C(=O)Nc2nnc(SCC)s2)CC1` (centres undefined) is > 20 µM (inactive). `CSc1ccc(C2CC(c3cccs3)=Nc3ncnn32)cc1` (centres undefined): the EC50 is 1.4 µM.

As to `CCN1C(=Cc2cc(C)[n+](C3CCCCC3)c(C)c2)Sc2ccccc21`, the EC50 was > 20 µM (inactive).

For `CCOc1ccc2nc3cc(N)ccc3c(N)c2c1`, the 50% effective concentration (EC50) is 4.44 µM. As for `CCOC=C(C#N)c1nc(C)cs1`, the EC50 is 2.43 µM. Consider `O=c1[nH]c(SCCO)nc2sc3c(c12)CCCC3`, for which the EC50 was > 20 µM (inactive). Take `COc1ccc2c(C)nc(N=C(N)N)nc2c1`: the EC50 is > 20 µM (inactive).

As to `COCCCNCc1c(-c2ccc(F)cc2)noc1N1CCOCC1`, the EC50 is > 20 µM (inactive).

As for `COc1cc(/C=C2\C(=N)N3N=CSC3=NC2=O)cc(Br)c1OC(=O)c1ccco1`, the EC50 was 10 µM. Take `CC(C(=O)O)N1C(=O)/C(=C/c2ccc(N(C)C)cc2)SC1=S` (centres undefined): the EC50 was 7.74 µM.

For the compound `CCCn1c2c(c(=O)n(C)c1=O)C(=O)C(=Cc1ccc(N(C)C)cc1)N2`, the 50% effective concentration (EC50) is 2.17 µM. For the compound `O=C(COc1ccccc1)N1CCCC(CNS(=O)(=O)c2cccs2)C1` (centres undefined), the EC50 is > 20 µM (inactive). Regarding `COc1cc(C=C2SC(=S)NC2=O)cc(Br)c1O`, the EC50 is > 20 µM (inactive).

As to `COCCCN(Cc1ccc(C(C)(C)C)cc1)Cc1cccn1Cc1cccc(C)c1`, the EC50 is > 20 µM (inactive).

As to `N#Cc1c(N)nc2c(c1N)C(Sc1ccccc1)c1ccc(O)cc1O2` (centres undefined), the EC50 was under 0.039 µM. The same measure for `COc1ccc(Cl)cc1NC(=O)/C(C#N)=C/c1coc2ccc(C)cc2c1=O`: > 20 µM (inactive); for `CC1C(=O)c2cccc3c(=O)n(-c4ccccc4)c(O)c(c23)C1=O` (centres undefined): > 20 µM (inactive); for `O=C1c2cccc3c(Nc4ccccc4)ccc(c23)C(=O)N1c1ccccc1`: 5.39 µM. For the compound `CN1C(=S)N(c2ccc3c(c2)CCC3)C(=O)/C1=C\c1ccncc1`, the EC50 was > 20 µM (inactive). `CC1=NCCc2c1[nH]c1cc(O)ccc21`: the half-maximal effective concentration (EC50) is 0.419 µM. Turning to `CCOc1cc(/C=C(\C#N)c2nc3ncc(Br)cc3[nH]2)ccc1O`, the EC50 is 2.3 µM. As for `Cc1csc(-c2cc3ccc(O)c(CN4CCN(CCO)CC4)c3oc2=O)n1`, the half-maximal effective concentration (EC50) is under 0.039 µM. The figure for `O=c1cc(C(F)(F)F)c2ccc(O)cc2o1` is 6.31 µM.

On to `CCN1C(=Cc2cc(C)[n+](CCOC)c(C)c2)Sc2ccccc21`, for which the EC50 was 17.6 µM.

Regarding `CC(C)C(=O)Nc1sc2c(c1-c1nc3ccccc3s1)CCN(C)C2`, the EC50 is > 20 µM (inactive). The same measure for `CC(=O)Oc1c(/C=C(\C#N)C(N)=O)[nH]c2ccccc12`: 6.22 µM; for `O=C1SC(Nc2ccc(I)cc2)C(=O)N1c1ccccc1` (centres undefined): 18.1 µM; for `CCNc1ccc(OC)nc1`: > 20 µM (inactive). As for `COc1cc(/C=C2\SC(=S)N(c3cccc(C(=O)O)c3)C2=O)ccc1O`, the EC50 was > 20 µM (inactive).

Take `Cc1ccc(NC2C=CS(=O)(=O)C2)cc1C` (centres undefined): the EC50 was > 20 µM (inactive). As for `CCN(CC)c1ccc(/C=C2\SC(=S)N(CC(=O)O)C2=O)c(O)c1`, the concentration giving a half-maximal response (EC50) was 1.15 µM.

Consider `O=P1(Nc2cc(C(F)(F)F)ccc2Cl)C=C(c2ccccc2)OC(c2ccccc2)=C1`, for which the EC50 was > 20 µM (inactive).

With `COc1ccc(OC)c(CCNc2nc3cnc(-c4cc(OC)c(OC)c(OC)c4)cc3n2C)c1`, the EC50 was > 20 µM (inactive). Take `O=[N+]([O-])c1c[n+]([O-])n(-c2cccc(Cl)c2)n1`: the EC50 is > 20 µM (inactive). The same measure for `N#C/C(=C/c1ccc(N2CCCCC2)o1)c1cccc(F)c1`: > 20 µM (inactive).

As for `COCCOc1ccc(NC(=O)N(C)C(C)C2(C)CC2)cn1` (centres undefined), the EC50 is > 20 µM (inactive). Take `C=CCN1C=CC(=CC=C(C#N)C#N)C=C1`: the half-maximal effective concentration (EC50) is 2.17 µM. The same measure for `CCN1CC=C2C(C#N)C(=N)C(C#N)(C#N)C(c3cccs3)C2C1` (centres undefined): > 20 µM (inactive); for `CCN1CCc2c(sc(NC(=O)COc3ccccc3)c2-c2nc3ccccc3s2)C1`: > 20 µM (inactive); for `COc1ccc2c(c1)OCC(C=C(C#N)S(=O)(=O)c1ccc(Br)cc1)=C2`: > 20 µM (inactive). The same measure for `C[C@H]1O[C@H](O[C@@H]2[C@@H](O[C@H]3CC[C@@]4(C)C(CC[C@]5(C)C4CC=C4[C@@H]6CC(C)(C)CC[C@]6(C(=O)O)CC[C@]45C)[C@]3(C)CO)OC[C@@H](O)[C@H]2O)[C@@H](O)[C@H](O)[C@@H]1O` (some centres undefined): 9.92 µM; for `Cc1ccccc1CNc1ncnc2c1ncn2C1OC(CO)C(O)C1O` (centres undefined): 6.77 µM; for `Cc1cc(O)c(CN2CCN(CCO)CC2)c2c1C(=O)/C(=C/c1cc3ccccc3o1)O2`: 7.38 µM. The same measure for `O=C1SC(Nc2ccc(Br)cc2)C(=O)N1c1ccccc1` (centres undefined): 17.9 µM. `COCCOc1ccc(NS(=O)(=O)c2cn(C)c(Cl)n2)cn1`: the EC50 is 7.28 µM.

For `Cc1ccc(-c2nc3nc(N)n(C)c(=O)c3[nH]c2=O)cc1`, the EC50 is > 20 µM (inactive). In the case of `COCCCN1COc2ccc3c(c2C1)O/C(=C\c1cc(OC)c(OC)c(OC)c1)C3=O`, the EC50 was 11.4 µM. Take `COc1cc(/C=C(\C#N)C(=O)c2ccc(O)c(O)c2)cc(I)c1O`: the concentration for a half-maximal effect (EC50) is 6.08 µM. For the compound `CC(C)Nc1ccc(NS(=O)(=O)NCc2ccccc2)cn1`, the EC50 was > 20 µM (inactive). With `CCCCCn1c(=O)c2c(nc3n2CCN3c2cc(C)cc(C)c2)n(C)c1=O`, the EC50 is > 20 µM (inactive). On to `COc1ccccc1Oc1nc2ccccn2c(=O)c1/C=C(\C#N)c1nc2ccccc2s1`, for which the EC50 was > 20 µM (inactive).

For `CCCCCN=C(N)NN=Cc1c[nH]c2ccc(OC)cc12`, the EC50 was > 20 µM (inactive).

The record behind these values is PubChem BioAssay AID1259426 (Fisher Drug Discovery Resource Center, 2018).
